Assay results published in patent publication US20250134870A1, “PATHWAY MODULATOR, PHARMACEUTICAL COMPOSITION HAVING SAME, USE THEREOF, AND THERAPEUTIC METHOD USING SAME” (Jiangsu Yahong Meditech Co., Ltd., priority 2021, published 2025).

Experiments:
[1] = tested on: IRBP R16-induced experimental autoimmune uveoretinitis (EAU); assay: Bovine IRBP R16-induced experimental autoimmune uveoretinitis (EAU): clinical score, AUC, incidence (Example 6); type: in vivo, Lewis rats; conditions: for Incidence rate (%): 0.4 mg/kg PO QD
Description: On Day-1 (i.e., the day before immunization, hereinafter), 60 rats were randomly divided into 6 groups (n=10) based on body weight (see Table 18). On Day 0, rats in Groups 2 to 6 were anesthetized with isoflurane, followed by subcutaneous injection of a total of […] of emulsion resulting from IRBP R16 and CFA emulsified at a 1:1 v/v ratio, on both thighs (50 μL at each site) and tail head (100 μL), respectively.
From Day 0 after immunization, the eyes of rats were checked daily with a flashlight by gently opening the upper and lower eyelids of the test rats, and the incidence of disease was recorded. Clinical symptoms were scored in a blind manner from the onset of disease to the end of the study according to the criteria listed in Table 17.
(§1) Dosing started from Day 0 accurately according to the animal body weight for a total of 16 days.
The results were expressed as “mean±standard error”. Graphpad Prism or SPSS was used for statistical analysis, and p<0.05 was considered statistically significant.

[2] = Body weight and spleen weight in IMQ-induced psoriasis mice (Example 8); type: in vivo, Balb/c mice; conditions: 2 mg/kg topical QD × 7 days (G4)
Excerpt: 4) Spleen samples were collected and weighed (FIG. 23).
Body weight was monitored daily throughout the study. Continuous use of IMQ cream could reduce the mean body weight of the solvent group. […] However, there was no statistically significant difference between the treatment and solvent groups (FIG. 21)

[3] = tested on: imiquimod (IMQ)-induced psoriasis; assay: Imiquimod (IMQ)-induced psoriasis in mice: erythema, scales, thickness, total score, AUC (Example 8); type: in vivo, Balb/c mice; parameters: key to erythema score / scales score / thickness score: 0 = none, 1 = mild, 2 = moderate, 3 = obvious/severe; key to total score of erythema + scales + thickness: sum of three 0-3 scores (erythema + scales + thickening), 0-9; conditions: for erythema score / scales score: 2 mg/kg topical QD; for thickness score / total score of erythema + scales + thickness: positive control group
Description: All mice were shaved with a pet shaver to get an area of 2×3 cm on the back one day before the start of the experiment.
65 animals were randomly divided into groups according to body weight, and the dosing regimen was as follows.
Imiquimod (IMQ) cream: 62.5 mg of IMQ cream for each mouse in G2 to G7; Dexamethasone (DEX) ointment: 70 mg of ointment for each mouse in G4;
Tofacitinib: Tofacitinib was dissolved in dimethyl sulfoxide to 5 mg/mL, and 50 μL was added to IMQ cream for daily treatment.
Mice in Groups 2 to 7 received daily topical doses of 62.5 mg of IMQ cream on their shaved back from Day 0 to Day 7.
Dosing of the test compounds and reference substance was carried out according to Table 29 for 7 consecutive days.
To assess the severity of inflammation of skin on the back, the skin on the back was scored according to Table 30. Erythema, scales and thickening were scored independently on a scale of 0 to 3, 0, none; 1. mild; 2. moderate; 3. obvious/severe.
The inhibition rate was calculated according to the following formula: Inhibition rate=[AUC (solvent)−AUC (treatment)]/AUC (solvent)×100%. Wherein, solvent referred to the solvent group corresponding to the route of administration.

[4] = Body weight and weight change rate of EAU rats (Example 6); type: in vivo, Lewis rats; conditions: 0.4 mg/kg PO QD
Excerpt: Wherein, Day 0 referred to the day of immunization. The body weight of each rat was monitored twice a week after immunization.
as §1

[5] = tested on: bleomycin-induced skin fibrosis; assay: Bleomycin-induced skin fibrosis in mice: body weight, spleen weight, spleen/body weight ratio (Example 5); type: in vivo, male C57BL/6 mice; conditions: 50 mg/kg IP QD, 28 days
Description: Isoflurane (2.0 to 2.5%) was used to anesthetize the animals. The fur of the back was removed, and a 1 cm^2 area was selected for intradermal injection of bleomycin (0.3 mg/kg, 100 μL) every two days to establish a skin fibrosis model.
Dosing started on the day of model establishment. Each animal was weighed for the animal body weight before dosing to calculate the volume of administration, wherein the period of administration was 28 days. […] Frequency of administration: twice a day for Nintedanib group and once a day for other groups.
The change in animal body weight was recorded twice a week from the date of model establishment. The clinical manifestations of animals, such as shortness and difficulty of breath, abdominal suction, decreased activity and malaise, were closely observed.
Animals were weighed at the experimental endpoints and the body weight was recorded to calculate the volume of administration. 6 h after dosing, firstly, whole blood was collected from the orbital venous plexus of mice and subjected to blood routine test using an automated Hematology analyzer (Sysmex XS-800i). […]
Then the animals were euthanized by intraperitoneal injection of pentobarbital sodium. The material and order of dissection were as follows: Spleen was collected and weighed and the weight was recorded. […]
The mean±SEM was calculated using Graphpad prism 6.0 software. […]

[6] = tested on: bleomycin-induced skin fibrosis; assay: Bleomycin-induced skin fibrosis in mice: skin histopathology (dermal thickness, capillary density score, inflammatory cell infiltration score); type: in vivo, male C57BL/6 mice; conditions: 50 mg/kg IP QD, 28 days
Description: The skin tissue of the lesioned skin was subjected to dehydration, embedding and sectioning according to the pathology SOP, and the tissue was stained by HE and Masson staining. Histopathological analysis was performed according to the following methods:
Masson-stained sections were panoramically scanned by using Nanozomer S210 and the scanned images were subjected to quantitative analysis using Visiopharm VIS6.0 software. The degree of fibrosis was currently represented by the dermal thickness after Masson staining.
The fields of observation was selected in the dermis layer of the lesioned area (the number of fields selected was determined according to the size of the lesioned area) and scored according to the area occupied by capillaries in the area: • 0: No capillary formed • 1: The proportion of capillaries formed was less than 25%; • 2: The proportion of capillaries formed was 25-50%; • 3: The proportion of capillaries formed was 50-75%; • 4: The proportion of capillaries formed was greater than 75%. 3.8.3 Inflammatory cell infiltration score of dermis layer
The fields of observation was selected in the dermis layer of the lesioned area (the number of fields selected was determined according to the size of the lesioned area) and scored according to the degree of inflammatory cell infiltration: • 0: No inflammatory cell infiltration: • 1: A small amount of focal inflammatory cell infiltration; • 2: Scattered diffuse inflammatory cell infiltration: • 3: A large amount of diffuse inflammatory cell infiltration; • 4: A large amount of agglomerated inflammatory cell infiltration.

C[C@@H]1C[C@H]2[C@@H]3CCC4=CC(=O)C=C[C@]4(C)[C@@]3(F)[C@@H](O)C[C@]2(C)[C@@]1(O)C(=O)CO [Dexamethasone]
Area under the curve (AUC) of clinical score ([1]; 0.4 mg/kg PO QD × 16 days): 7.68
Incidence rate (%) ([1]; Day 0): 0%
Incidence rate (%) ([1]; Day 1): 0%
Incidence rate (%) ([1]; Day 2): 0%
Incidence rate (%) ([1]; Day 3): 0%
Incidence rate (%) ([1]; Day 4): 0%
Incidence rate (%) ([1]; Day 5): 0%
Incidence rate (%) ([1]; Day 6): 0%
Incidence rate (%) ([1]; Day 7): 10%
Incidence rate (%) ([1]; Day 8): 20%
Incidence rate (%) ([1]; Day 9): 100%
Incidence rate (%) ([1]; Day 10): 100%
Incidence rate (%) ([1]; Day 11): 90%
Incidence rate (%) ([1]; Day 12): 90%
Incidence rate (%) ([1]; Day 13): 90%
Incidence rate (%) ([1]; Day 14): 90%
Incidence rate (%) ([1]; Day 15): 90%
Incidence rate (%) ([1]; Day 16): 90%
Incidence rate (%) ([1]; Day −1): 0%
inhibition at 0.4 mg/kg ([1]; Rattus norvegicus, 384 h, 0.4 mg/kg PO QD × 16 days, vs model control, read-out: Inhibition rate of clinical score AUC): 84.5%
body weight (weight loss) [2]: weight loss was more dramatic
erythema score ([3]; Day 0): 0
scales score ([3]; Day 0): 0
thickness score ([3]; Day 0): 0
total score of erythema + scales + thickness ([3]; Day 0): 0
erythema score ([3]; Day 1): 0
scales score ([3]; Day 1): 0
thickness score ([3]; Day 1): 0
total score of erythema + scales + thickness ([3]; Day 1): 0
erythema score ([3]; Day 2): 0
scales score ([3]; Day 2): 0
thickness score ([3]; Day 2): 0
total score of erythema + scales + thickness ([3]; Day 2): 0
erythema score ([3]; Day 3): 0.2
scales score ([3]; Day 3): 0
thickness score ([3]; Day 3): 0
total score of erythema + scales + thickness ([3]; Day 3): 0
erythema score ([3]; Day 4): 0.1
scales score ([3]; Day 4): 0.2
thickness score ([3]; Day 4): 0
total score of erythema + scales + thickness ([3]; Day 4): 0.3
erythema score ([3]; Day 5): 0.1
scales score ([3]; Day 5): 0.2
thickness score ([3]; Day 5): 0
total score of erythema + scales + thickness ([3]; Day 5): 0.3
erythema score ([3]; Day 6): 0
scales score ([3]; Day 6): 0.2
thickness score ([3]; Day 6): 0
total score of erythema + scales + thickness ([3]; Day 6): 0.2
erythema score ([3]; Day 7): 0
scales score ([3]; Day 7): 0.1
thickness score ([3]; Day 7): 0
total score of erythema + scales + thickness ([3]; Day 7): 0.1
inhibition at 2 mg/kg ([3]; Mus musculus, 168 h, 2 mg/kg topical QD × 7 days, vs corresponding solvent group, read-out: inhibition rate (AUC of total clinical score)): 97%
Rat body weight ([4]; Day 2): 174.65 g
Weight change rate (%) ([4]; Day 2): −7.26%
Rat body weight ([4]; Day 6): 166.65 g
Weight change rate (%) ([4]; Day 6): −11.53%
Rat body weight ([4]; Day 9): 164.05 g
Weight change rate (%) ([4]; Day 9): −12.92%
Rat body weight ([4]; Day 13): 162.10 g
Weight change rate (%) ([4]; Day 13): −13.99%
Rat body weight ([4]; Day 16): 161.29 g
Weight change rate (%) ([4]; Day 16): −14.44%
Rat body weight ([4]; Day −1): 188.46 g
Weight change rate (%) ([4]; Day −1): 0.00%

Cc1ccc(NC(=O)c2ccc(CN3CCN(C)CC3)cc2)cc1Nc1nccc(-c2cccnc2)n1 [Imatinib]
death of animals [5]: One animal in Imatinib group died on Day 28
inflammatory cell infiltration of the lesioned skin [6]: visibly reduce
subdermal capillary hyperplasia [6]: visibly reduce
